Data from patent US20100311107A1, “Ultra-High Throughput Screening of Natural Products” (priority 2004, published 2010).
Like-named read-outs stand apart in the source and are kept apart here.

Key:
Assay type in all cases: cell-based, Escherichia coli
[1] = system: E. coli screening strain CM166; set-up: unit not given here; settings: Table 9, MHB medium
Source text: The level of drug resistance of CM166 was estimated by MIC assay carried out in MHB liquid medium and the results were summarized in Table 9. CM166 is resistant to antibacterial agents whose resistant genes have been incorporated into the strain, but not to other antibacterial drugs whose resistant genes are not incorporated.

[2] = system: lacZ reporter gene of the screening strains (CM191, CM242); assay: S-Gal staining assay on solid medium; settings: screening strains on solid medium, drug-impregnated disks, PETG to suppress background
Source text: The screening strains' responses to DNA damaging agents were further confirmed by S-Gal staining assay. When mitomycin C and streptonigrin (both were well-known DNA damaging drugs) and S-Gal, the indicator, were applied to the screening strains growing on solid medium, blue-colored rings were visible around colonies in drug-impregnated disks. […] Actinomycin D was an exception. CM242 was not sensitive to this drug, although it disrupts DNA structure. PETG (2-phenyethyl B-D-thiogalactoside, Sigma, St Louis Mo.), was used in this experiment to suppress unspecific background activity.

[3] = system: E. coli screening strain CM242; set-up: unit not given here; settings: second Table 12, MHB medium
Method: The level of drug resistance of these screening strains (both intermediates and finals) was evaluated by standard MIC assay in MHB liquid medium and the result of Strain CM242 is summarized in Table 12.

[4] = system: E. coli screening strain DR1234; set-up: unit not given here; settings: Table 7, MHB medium
Summary of the method: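 Drug resistance of E. coli MG1655-derived strain DR1234, carrying introduced drug-resistance genes, measured by standard MIC assay in MHB liquid medium.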

[5] = system: E. coli screening strain DR1212; set-up: unit not given here; settings: Table 11, MHB medium
Method: The level of drug-resistance of screening strain DR1212 was analyzed by standard MIC assay in MHB liquid medium and the result was summarized in Table 11. Similar to screening strains, DR1234 and CM166, DR1212 is also resistant to drugs whose resistant genes have been introduced.

[6] = system: E. coli MG1655; set-up: unit not given here
[7] = system: PsulA′-'lacZ fusion gene in CM191; assay: β-galactosidase activity in the presence of DNA damaging drugs; settings: CM191, two hours after addition, 0.5 μg/ml
Method: (§1) The responses to DNA damaging agents of the screening strains described above were measured by analyzing the β-galactosidase activity in the presence of DNA damaging drugs. This method is described in detail in “A Short Course in Bacterial Genetics” 1992, ed. Miller, Cold Spring Harbor Press, pp. 72-74. The PsulA′-'lacZ fusion gene in CM191 was induced 15 fold compared to a non-induced control two hours after the addition of mitomycin C (0.5 μg/ml). In the case of CM242 which contains the PrecN′-'lacZ fusion gene, a more than 40-fold induction had been observed. Such induction was also drug-specific. In an experiment when phosphomycin (at 10 μg/ml) was used, there was no induction of the β-galactosidase activity.

[8] = system: PrecN′-'lacZ fusion gene in CM242; assay: as above
Method: as §1

[9] = system: E. coli screening strain CM435; set-up: Minimal inhibitory concentrations (MIC90) CM435: unit not given here; settings: Table 13, MHB medium
[10] = system: E. coli screening strain CM400; set-up: unit not given here; settings: Table 13, MHB medium
Summary of the method: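 MIC determined by standard broth assay in MHB liquid medium for E. coli screening strains CM400 and CM435.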

Row | Structure (SMILES) | Minimal inhibitory concentrations (MIC90) CM166 [1] | lacZ reporter gene expression (S-Gal, blue-colored rings) [2] | Minimal inhibitory concentrations (MIC90) CM242 [3] | Minimal inhibitory concentrations (MIC90) DR1234 [4] | Minimal inhibitory concentrations (MIC90) DR1212 [5] | Minimal inhibitory concentrations (MIC90) MG1655 [6] | induction of PsulA′-'lacZ fusion gene compared to a non-induced control [7] [fold] | induction of PrecN′-'lacZ fusion gene ([8]; CM242, 0.5 μg/ml) | Minimal inhibitory concentrations (MIC90) CM435 [9] | Minimal inhibitory concentrations (MIC90) MG1655 ([6]; Table 13, MHB medium) | Minimal inhibitory concentrations (MIC90) CM400 [10] | induction of the β-galactosidase activity ([8]; at 10 μg/ml, strain not specified)
1 | CO[C@@]12[C@H](COC(N)=O)C3=C(C(=O)C(C)=C(N)C3=O)N1C[C@@H]1N[C@@H]12 [Mitomycin C] | 3.2 | induced | 3.2 | 3.2 | <0.4 | 0.8 | 15 | more than 40 fold | – | – | – | –
2 | C[C@@H]1O[C@@H]1P(=O)(O)O [Phosphomycin] | – | – | – | – | – | – | – | – | 64 | 32 | 8 | no induction
